# Results published in patent US11746116B2, “Antibiotic resistance breakers” (KING'S COLLEGE LONDON, priority 2017, dated 2023).
# Tests used:
# [1] = test system: KP13368; assay: MIC, microdilution broth method; assay type: cell-based
# [2] = test system: PA01; assay: MIC, microdilution broth method; assay type: cell-based, Pseudomonas aeruginosa
compound,measurement,setting,value
"Cc1cc(C)nc(N[C@@H]2CCN(c3c(F)cc4c(=O)c(C(=O)O)cn5c4c3OC[C@@H]5C)C2)n1 [KSN-BL7, (S)-10-((R)-3-((4,6-dimethylpyrimidin-2-yl)amino)pyrrolidin-1-yl)-9-fluoro-3-methyl-7-oxo-2,3-dihydro-7H-[1,4]oxazino[2,3,4-ij]quinoline-6-carboxylic acid]","MIC, KP13368","[1]; ESKAPE panel, Gram-negative",16 µg/mL
same,MIC,[1]; Klebsiella pneumoniae,16 µg/mL
same,"MIC, PA01","[2]; ESKAPE panel, Gram-negative, in µg/mL",8
same,MIC,[2]; Pseudomonas aeruginosa,8 µg/mL
